Experimental data: patent publication US11447485B2, “Class of bifunctional compounds with quanternary ammonium salt structure” (Beijing Showby Pharmaceutical Co., Ltd., priority 2016, dated 2022)

Legend:
[1] = test system: tracheal smooth muscle of guinea pig; test: Relaxation of CCh-induced constriction of isolated guinea pig tracheal smooth muscle (Experimental Example 1); settings: for Onset time (min) ± SD / Time for eliminating inhibition effect (min): CCh 3 × 10^−6 mol/L, in vitro; for EC50: Cavia porcellus, read-out: EC50 (μM) ± SD
Description: The upper end was connected with a muscle tension transducer, and the specimen was given a resting tension of 1.0 g. Muscle tension changes were recorded, nutrient solution was changed every 20 min, and the experiment was started after 60 min of equilibrium.
Administration Method: After the trachea flake were stabilized, 3×10^−6 mol/L CCh was added to the bath. […] Diastolic condition of the trachea flake was observed. If no response occurred (below the threshold concentration), the next dosage was continued to be added in the order. If any response occurred, the next dosage was added until its diastolic platform was reached. The above operation was repeated until the shrink curve reached the minimum. Finally, 10^−6 mol/L isoproterenol was added to establish maximum relaxation, and the curve was recorded.
Statistical Methods: Statistics was performed using the Sigma Stat statistical software package, the data was analyzed by using the variance analysis. Student-Newman-Keuls (SNK) test was used in comparison among multiple sample averages number. The statistical test level was α=0.05 (bilateral).

[2] = molecular target: T1, human recombinant β2 adrenoceptor (Homo sapiens, UniProt P07550); test: cell-based; assay type: cell-based; settings: EC50 (β1)/EC50 (β2)
T1 construct: expressed in transfected cells

[3] = test system: bronchoconstriction response in the trachea of guinea pig induced by Mch; test: Bronchoconstriction induced by methacholine (Mch) in anaesthetized guinea pigs, airway dripping (Raw, Cdyn); settings: Mch 10 μg/kg iv; for Cdyn (ml/cmH2O) / Raw (cmH2O/ml/s): 30 min, Mean ± S.E.M

T1 sequence (P07550 whole entry): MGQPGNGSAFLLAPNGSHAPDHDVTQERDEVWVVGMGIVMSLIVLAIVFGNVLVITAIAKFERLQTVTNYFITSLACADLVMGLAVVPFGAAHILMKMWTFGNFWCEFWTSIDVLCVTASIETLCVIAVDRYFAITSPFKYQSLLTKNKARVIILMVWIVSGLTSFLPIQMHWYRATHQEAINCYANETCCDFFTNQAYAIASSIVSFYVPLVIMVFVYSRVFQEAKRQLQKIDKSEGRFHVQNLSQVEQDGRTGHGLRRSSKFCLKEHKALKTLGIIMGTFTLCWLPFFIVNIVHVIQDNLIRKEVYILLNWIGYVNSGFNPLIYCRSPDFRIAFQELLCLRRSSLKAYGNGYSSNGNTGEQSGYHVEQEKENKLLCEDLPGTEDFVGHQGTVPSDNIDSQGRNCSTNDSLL

SMILES | Onset time (min) ± SD [1] [min] | Time for eliminating inhibition effect (min) [1] | EC50 [1] [µM] | sel (β1/β2) [2] | Cdyn (ml/cmH2O) ([3]; 0.1 μg/kg airway dripping) | Raw (cmH2O/ml/s) ([3]; 0.1 μg/kg airway dripping) | inhibitory rate of lung dynamic compliance decrease ([3]; 0.1 μg/kg airway dripping) [%] | inhibitory rate on airway resistance increase ([3]; 0.1 μg/kg airway dripping) [%] | Cdyn (ml/cmH2O) ([3]; 0.3 μg/kg airway dripping) | Raw (cmH2O/ml/s) ([3]; 0.3 μg/kg airway dripping) | inhibitory rate of lung dynamic compliance decrease ([3]; 0.3 μg/kg airway dripping) [%] | inhibitory rate on airway resistance increase ([3]; 0.3 μg/kg airway dripping) [%] | Cdyn (ml/cmH2O) ([3]; 1 μg/kg airway dripping) | Raw (cmH2O/ml/s) ([3]; 1 μg/kg airway dripping) | inhibitory rate of lung dynamic compliance decrease ([3]; 1 μg/kg airway dripping) [%] | inhibitory rate on airway resistance increase ([3]; 1 μg/kg airway dripping) [%]
COc1cc(NC(=O)CC[N+]23CCC(CC2)[C@@H](OC[C@@](O)(c2ccccc2)C2CCCC2)C3)c(Cl)cc1CNC[C@H](O)c1ccc(O)c(NC=O)c1.[Br-] [Compound 138] | 6.56 ± 0.23 | more than 300 min | 0.0186 ± 0.0033 | 228.3 | 0.124 ± 0.019 | 0.687 ± 0.079 | 31.0 | 74.8 | 0.158 ± 0.036 | 0.508 ± 0.093 | 48.2 | 88.9 | 0.231 ± 0.022 | 0.418 ± 0.086 | 49.9 | 92.6
CC(C)(Cc1ccc(OCC[N+]23CCC(CC2)[C@@H](OC[C@@](O)(c2ccccc2)C2CCCCC2)C3)cc1)NC[C@H](O)c1ccc(O)c(NC=O)c1.[Br-] [Compound 99] | 7.35 ± 0.33 | more than 300 min | 0.0172 ± 0.0072 | 389 | 0.120 ± 0.017 | 0.778 ± 0.073 | 35.0 | 73.5 | 0.158 ± 0.021 | 0.528 ± 0.082 | 48.8 | 86.8 | 0.223 ± 0.035 | 0.421 ± 0.069 | 49.7 | 91.9
Cc1cc(CNC[C@H](O)c2ccc(O)c(NC=O)c2)ccc1NC(=O)CC[N+]12CCC(CC1)[C@@H](OC[C@@](O)(c1ccccc1)C1CCCC1)C2.[Br-] [Compound 140] | 6.18 ± 0.18 | more than 300 min | 0.0235 ± 0.0054 | 86.9 | – | – | – | – | – | – | – | – | – | – | – | –
O=C1COc2c(cc(O)cc2[C@@H](O)CNCCCc2ccc(OCCC[N+]34CCC(CC3)[C@@H](OC[C@@](O)(c3ccccc3)C3CCCC3)C4)cc2)N1 [Compound 104] | 6.67 ± 0.17 | more than 300 min | 0.0106 ± 0.0079 | 29.6 | – | – | – | – | – | – | – | – | – | – | – | –
COc1cc(C(C)NC[C@H](O)c2ccc(O)c(CO)c2)ccc1OCCC[N+]12CCC(CC1)[C@@H](OC[C@@](O)(c1ccccc1)C1CCCC1)C2.[Br-] (stereo partly drawn) [Compound 70] | 7.15 ± 0.31 | more than 300 min | 0.0183 ± 0.0087 | 379.8 | 0.218 ± 0.013 | 0.702 ± 0.098 | 34.2 | 69.6 | 0.357 ± 0.087 | 0.613 ± 0.107 | 47.8 | 86.5 | 0.345 ± 0.076 | 0.431 ± 0.095 | 49.3 | 92.1
O=C1COc2c(cc(O)cc2C(O)CNCCCCOCCCCC[N+]23CCC(CC2)C(OCC(O)(c2ccccc2)C2CCCC2)C3)N1 [Compound 26, (R)-(−)-3-[(R)-2-hydroxy-2-cyclopentyl-2-phenyl]ethoxy-1-[5-(4-{(R)-[2-hydroxy-2-(6-hydroxy-2H-1,4-benzoxazin-3(4H)-one-8-yl)]ethylamino}butoxy)pentyl]-1-azabicyclo[2,2,2]octylonium bromide] | 6.56 ± 0.65 | more than 300 min | 0.087 ± 0.021 | 18.8 | – | – | – | – | – | – | – | – | – | – | – | –
OCc1cc(C(O)CNCCOCCOCCOCC[N+]23CCC(CC2)C(OCC(O)(c2ccccc2)C2CCCC2)C3)ccc1O [Compound 45, (R)-(−)-3-[(R)-2-hydroxy-2-cyclopentyl-2-phenyl]ethoxy-1-(2-{2-[2-(2-{(R)-[2-(3-hydroxymethyl-4-hydroxy)phenyl-2-hydroxy]ethylamino}ethoxy)ethoxy]ethoxy}ethyl)-1-azabicyclo[2,2,2]octylonium bromide] | 6.39 ± 0.56 | more than 300 min | 0.0278 ± 0.0091 | 120.3 | – | – | – | – | – | – | – | – | – | – | – | –
O=CNc1cc([C@@H](O)CNCCCC[N+]23CCC(CC2)[C@@H](OC[C@@](O)(c2ccccc2)C2CCCC2)C3)ccc1O [Compound 4, (R)-(−)-3-[(R)-2-hydroxy-2-cyclopentyl-2-phenyl]ethoxy-1-(4-{(R)-[2-hydroxy-2-(3-formamido-4-hydroxy)phenyl]ethylamino}butyl-1-azabicyclo[2,2,2]octylonium bromide] | 6.23 ± 0.23 | more than 300 min | 0.0358 ± 0.011 | 36.8 | – | – | – | – | – | – | – | – | – | – | – | –
COc1cc(CNCC(O)c2ccc(O)c3[nH]c(=O)ccc23)c(Cl)cc1NC(=O)CC[N+]12CCC(CC1)C(OCC(O)(c1ccccc1)C1CCCC1)C2 [Compound 115, (R)-(−)-3-[(R)-2-hydroxy-2-cyclopentyl-2-phenyl]ethoxy-1-{3-[5-chloro-2-methoxy-4-({(R)-[2-hydroxy-2-(8-hydroxy-2-oxo-1,2-dihydroquinolin-5-yl)]ethylamino}methyl)anilino]oxopropyl}-1-azabicyclo[2,2,2]octylonium bromide] | 6.82 ± 0.36 | more than 300 min | 0.0237 ± 0.01 | 85.5 | – | – | – | – | – | – | – | – | – | – | – | –
CC(NC[C@H](O)c1ccc(O)c(NC=O)c1)c1ccc(COCC[N+]23CCC(CC2)[C@@H](OC[C@@](O)(c2ccccc2)C2CCCC2)C3)cc1 (stereo partly drawn) [Compound 117, (R)-(−)-3-[(R)-2-hydroxy-2-cyclopentyl-2-phenyl]ethoxy-1-{2-[4-(2-{(R)-[2-hydroxy-2-(3-formamido-4-hydroxy)phenyl]ethylamino}ethylidene)benzyloxy]ethyl}-1-azabicyclo[2,2,2]octylonium bromide] | 5.96 ± 0.21 | more than 300 min | 0.0217 ± 0.0081 | 39.8 | – | – | – | – | – | – | – | – | – | – | – | –
O=C1COc2c(cc(O)cc2[C@@H](O)CNCc2cc(Cl)c(OCCC[N+]34CCC(CC3)[C@@H](OC[C@@](O)(c3ccccc3)C3CCCC3)C4)c(Cl)c2)N1.[Br-] [Compound 106] | 6.26 ± 0.24 | more than 300 min | 0.0183 ± 0.0086 | 288.9 | – | – | – | – | – | – | – | – | – | – | – | –
CC(C)(NC[C@H](O)c1ccc(O)c(CO)c1)c1ccc(OCCC[N+]23CCC(CC2)[C@@H](OC[C@@](O)(c2ccccc2)C2CCCC2)C3)cc1.[Br-] [Compound 71] | 6.92 ± 0.26 | more than 300 min | 0.019 ± 0.0061 | 468.2 | – | – | – | – | – | – | – | – | – | – | – | –
O=c1ccc2c([C@@H](O)CNCCOCCOCC[N+]34CCC(CC3)[C@@H](OC[C@@](O)(c3ccccc3)C3CCCC3)C4)ccc(O)c2[nH]1.[Cl-] [Compound 50] | 6.76 ± 0.32 | more than 300 min | 0.0135 ± 0.0092 | 56.9 | – | – | – | – | – | – | – | – | – | – | – | –
O=c1ccc2c([C@@H](O)CNCCc3ccc(OCCC[N+]45CCC(CC4)[C@@H](OC[C@@](O)(c4ccc(Cl)cc4)C4CCCC4)C5)cc3)ccc(O)c2[nH]1.[Br-] [Compound 78] | 6.48 ± 0.38 | more than 300 min | 0.0137 ± 0.0078 | 108.6 | – | – | – | – | – | – | – | – | – | – | – | –
OCc1cc([C@@H](O)CNCCOc2ccc(OCC[N+]34CCC(CC3)[C@@H](OC[C@@](O)(c3ccccc3)C3CCCC3)C4)cc2)ccc1O [Compound 114, (R)-(−)-3-[(R)-2-hydroxy-2-cyclopentyl-2-phenyl]ethoxy-1-{2-[4-(2-{(R)-[2-(3-hydroxymethyl-4-hydroxy)phenyl-2-hydroxy]ethylamino}ethyoxyl)phenoxy]ethyl}-1-azabicyclo[2,2,2]octylonium bromide] | 6.24 ± 0.13 | more than 300 min | – | 98.9 | – | – | – | – | – | – | – | – | – | – | – | –
CC(C)(Cc1ccc(OCC[N+]23CCC(CC2)[C@@H](OC[C@@](O)(c2ccccc2)C2CCCC2)C3)cc1)NC[C@H](O)c1cc(O)cc2c1OCC(=O)N2 [Compound 60, (R)-(−)-3-[(R)-2-hydroxy-2-cyclopentyl-2-phenyl]ethoxy-1-{2-[4-(2-{(R)[-2-hydroxy-2-(6-hydroxy-2H-1,4-benzoxazin-3(4H)-one-8-yl)]ethylamino}isobutyl)phenoxy]ethyl}-1-azabicyclo[2,2,2]octylonium bromide] | 6.59 ± 0.43 | more than 300 min | 0.0523 ± 0.018 | 12.3 | – | – | – | – | – | – | – | – | – | – | – | –
